The test addresses T1, Full length human recombinant HDAC8 protein (Homo sapiens, UniProt Q9BY41).
T1 construct: Full length human recombinant HDAC8 protein was expressed in baculoviral system; made in house
T1 sequence (Q9BY41 1-377): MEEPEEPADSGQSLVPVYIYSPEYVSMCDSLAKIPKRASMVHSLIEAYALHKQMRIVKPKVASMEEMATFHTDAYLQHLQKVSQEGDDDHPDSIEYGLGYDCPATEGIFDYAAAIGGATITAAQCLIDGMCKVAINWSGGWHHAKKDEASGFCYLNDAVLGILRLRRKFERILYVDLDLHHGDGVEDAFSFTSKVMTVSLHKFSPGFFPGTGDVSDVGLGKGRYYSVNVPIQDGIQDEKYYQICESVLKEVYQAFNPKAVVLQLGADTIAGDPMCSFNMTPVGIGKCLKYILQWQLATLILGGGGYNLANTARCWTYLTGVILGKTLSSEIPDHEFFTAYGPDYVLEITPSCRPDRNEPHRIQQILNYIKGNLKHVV
Kind of test: In vitro histone deacetylase assay: enzymatic HDAC8 assay, electrophoretic mobility shift. Format: biochemical. The following applies: substrate RHKK(Ac)-NH2, 1 nM enzyme, compounds listed under IC50 range headings. The essentials:
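Baculovirus-expressed full-length human HDAC8 (1 nM) deacetylated 2 µM fluorescent RHKK(Ac)-NH2 peptide in pH 7.5 HEPES, 1% DMSO, at 25 °C, with 12 compound concentrations at 3× spacing. SDS-quenched; product and substrate resolved by microfluidic electrophoresis, P/(S+P) converted to percent inhibition, and IC50 obtained by 4-parameter fit.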
On the technique in general: Mobility shift assays separate free from complexed probe on a gel.

The structures appear in SMILES notation. Where only a bound is given, the exact number is not on record here.

Consider `O=C(/C=C/c1ccccc1N1CCC(NC(=O)CCN2CCCC2=O)CC1)NO` [Example I-137, (E)-N-hydroxy-3-(2-(4-(3-(2-oxopyrrolidin-1-yl)propanamido)piperidin-1-yl)phenyl)acrylamide], for which the IC50 (commonly the concentration that inhibits the measured activity by half) was below 1000 nM.

With `O=C(/C=C/c1ccccc1N1CCC(NC(=O)CN2CCS(=O)(=O)CC2)CC1)NO` [Example I-138, (E)-3-(2-(4-(2-(1,1-dioxidothiomorpholino)acetamido)piperidin-1-yl)phenyl)-N-hydroxyacrylamide], the IC50 was below 1000 nM.

As to `COc1cc(CC(=O)NC2CCN(c3ccccc3/C=C/C(=O)NO)CC2)ccc1O` [Example I-139, (E)-N-hydroxy-3-(2-(4-(2-(4-hydroxy-3-methoxyphenyl)acetami-do)piperidin-1-yl)phenyl)acrylamide], the IC50 is below 1000 nM.

On to `O=C(/C=C/c1ccccc1N1CCC(NC(=O)C2Cc3ccccc3C2)CC1)NO` [Example I-140, (E)-N-(1-(2-(3-(hydroxyamino)-3-oxoprop-1-en-1-yl)phenyl)piperidin-4-yl)-2,3-dihydro-1H-indene-2-carboxamide], for which the IC50 was below 1000 nM.

Turning to `Cc1ccccc1Oc1ncccc1C(=O)NC1CCN(c2ccccc2/C=C/C(=O)NO)CC1` [Example I-141, (E)-N-(1-(2-(3-(hydroxyamino)-3-oxoprop-1-en-1-yl)phenyl)piperdin-4-yl)-2-(o-tolyloxy)nicotinamide], the IC50 is below 1000 nM.

Turning to `O=C(/C=C/c1ccccc1N1CCC(NC(=O)C2CCC(F)(F)CC2)CC1)NO` [Example I-142, (E)-4,4-difluoro-N-(1-(2-(3-(hydroxyamino)-3-oxoprop-1-en-1-yl)phenyl)piperidin-4-yl)cyclohexane-1-carboxamide], the IC50 was below 1000 nM.

`CC1(CCC(=O)NC2CCN(c3ccccc3/C=C/C(=O)NO)CC2)CC1` [Example I-143, (E)-N-hydroxy-3-(2-(4-(3-(1-methylcyclopropyl)propan-amido)piperidin-1-yl)phenyl)acrylamide]: the IC50 was below 1000 nM.

As to `CN(CC(=O)NC1CCN(c2ccccc2/C=C/C(=O)NO)CC1)S(C)(=O)=O` [Example I-144, (E)-N-hydroxy-3-(2-(4-(2-(N-methylmethylsulfonamido)acetamido)piperidin-1-yl)phenyl)acrylamide], the IC50 was below 1000 nM.

Take `O=C(/C=C/c1ccccc1N1CCC(NC(=O)c2cnn3c2OCCC3)CC1)NO` [Example I-145, (E)-N-(1-(2-(3-(hydroxyamino)-3-oxoprop-1-en-1-yl)phenyl)piperidin-4-yl)-6,7-dihydro-5H-pyrazolo[5,1-b][1,3]oxazine-3-carboxamide]: the IC50 is below 1000 nM.

As for `O=C(/C=C/c1ccccc1N1CCC(NC(=O)CC23CCCN2CCC3)CC1)NO` [Example I-146], the IC50 is below 1000 nM.

Regarding `O=C(/C=C/c1ccccc1N1CCC(NC(=O)c2ccc3cnccc3n2)CC1)NO` [Example I-147, (E)-N-(1-(2-(3-(hydroxyamino)-3-oxoprop-1-en-1-yl)phenyl)piperidin-4-yl)-1,6-naphthyridine-2-carboxamide], the IC50 is below 1000 nM.

Take `O=C(/C=C/c1ccccc1N1CCC(NC(=O)C2CC(F)(F)C2)CC1)NO` [Example I-149, (E)-3,3-difluoro-N-(1-(2-(3-(hydroxyamino)-3-oxoprop-1-en-1-yl)phenyl)piperidin-4-yl)cyclobutane-1-carboxamide]: the IC50 is below 1000 nM.

As for `O=C(/C=C/c1ccccc1N1CCC(NC(=O)CC2CC2)CC1)NO` [Example I-150], the 50% inhibitory concentration (IC50) is below 1000 nM.

As to `O=C(/C=C/c1ccccc1N1CCC(NC(=O)CC2CCS(=O)(=O)CC2)CC1)NO` [Example I-151, (E)-3-(2-(4-(2-(1,1-dioxidotetrahydro-2H-thiopyran-4-yl)acetamido)piperidin-1-yl)phenyl)-N-hydroxyacrylamide], the IC50 is below 1000 nM.

`O=C(/C=C/c1ccccc1N1CCC(NC(=O)CSc2ccccc2)CC1)NO` [Example I-152, (E)-N-hydroxy-3-(2-(4-(2-(phenylthio)acetamido)piperidin-1-yl)phenyl)acrylamide]: the IC50 is below 1000 nM.

Consider `CC(C)c1ccc(C(=O)NC2CCN(c3ccccc3/C=C/C(=O)NO)CC2)nc1` [Example I-154, (E)-N-(1-(2-(3-(hydroxyamino)-3-oxoprop-1-en-1-yl)phenyl)piperidin-4-yl)-5-isopropylpicolinamide], for which the IC50 was below 1000 nM.

In the case of `O=C(/C=C/c1ccccc1N1CCC(NC(=O)c2cc3ccccc3[nH]2)CC1)NO` [Example I-155], the IC50 was below 1000 nM.

Consider `CSc1ccc(CC(=O)NC2CCN(c3ccccc3/C=C/C(=O)NO)CC2)cc1` [Example I-156], for which the IC50 is below 1000 nM.

Take `CC(C)CCC(=O)NC1CCN(c2ccccc2/C=C/C(=O)NO)CC1` [Example I-157, (E)-N-(1-(2-(3-(hydroxyamino)-3-oxoprop-1-en-1-yl)phenyl)piperidin-4-yl)-4-methylpentanamide]: the IC50 was below 1000 nM.

On to `Cc1nc(CC(=O)NC2CCN(c3ccccc3/C=C/C(=O)NO)CC2)c(C)s1` [Example I-158, (E)-3-(2-(4-(2-(2,5-dimethylthiazol-4-yl)acetamido)piperidin-1-yl)phenyl)-N-hydroxyacrylamide], for which the IC50 was below 1000 nM.

Turning to `O=C(/C=C/c1ccccc1N1CCC(NC(=O)c2ccoc2)CC1)NO` [Example I-159], the IC50 was below 1000 nM.

Regarding `O=C(/C=C/c1ccccc1N1CCC(NC(=O)c2ccc(-n3cccc3)nc2)CC1)NO` [Example I-160], the IC50 was below 1000 nM.

For the molecule `O=C(/C=C/c1ccccc1N1CCC(NC(=O)c2ccc3[nH]nnc3c2)CC1)NO` [Example I-161], the IC50 was below 1000 nM.

As to `CN(C)Cc1ccccc1CN1CCN(c2ccccc2/C=C/C(=O)NO)CC1` [Example I-162, (E)-3-(2-(4-(2-((dimethylamino)methyl)benzyl)piperazin-1-yl)phenyl)-N-hydroxyacrylamide], the IC50 is below 1000 nM.

Take `O=C(/C=C/c1ccccc1N1CCN(Cc2ccc(F)cc2)CC1)NO` [Example I-163, (E)-3-(2-(4-(4-fluorobenzyl)piperazin-1-yl)phenyl)-N-hydroxyacrylamide]: the IC50 was below 1000 nM.

For `O=C(/C=C/c1ccccc1N1CCN(Cc2ccccc2F)CC1)NO` [Example I-164, (E)-3-(2-(4-(2-fluorobenzyl)piperazin-1-yl)phenyl)-N-hydroxyacrylamide], the concentration for half-maximal inhibition (IC50) is below 1000 nM.

`O=C(/C=C/c1ccccc1N1CCN(Cc2ccc(C(F)(F)F)nc2)CC1)NO` [Example I-165, (E)-N-hydroxy-3-(2-(4-((6-(trifluoromethyl)pyridin-3-yl)methyl)piperazin-1-yl)phenyl)acrylamide]: the IC50 was below 1000 nM.

Regarding `O=C(/C=C/c1ccccc1N1CCN(CCCc2ccccc2)CC1)NO` [Example I-166, (E)-N-hydroxy-3-(2-(4-(3-phenylpropyl)piperazin-1-yl)phenyl)acrylamide], the IC50 is below 1000 nM.

Regarding `O=C(/C=C/c1ccccc1N1CCN(CC2CCOC2)CC1)NO` (stereo not drawn) [Example I-167, (E)-N-hydroxy-3-(2-(4-((tetrahydrofuran-3-yl)methyl)piperazin-1-yl)phenyl)acrylamide], the concentration for half-maximal inhibition (IC50) is below 1000 nM.

Regarding `O=C(/C=C/c1ccccc1N1CCN(Cc2ccccn2)CC1)NO` [Example I-168, (E)-N-hydroxy-3-(2-(4-(pyridin-2-ylmethyl)piperazin-1-yl)phenyl)acrylamide], the IC50 is below 1000 nM.

Values taken from patent US10508077B2 (FORMA Therapeutics, Inc., priority 2015, dated 2019).
